Assay in all cases: inhibition of tumour cell growth, NCI panel, 48 h
Test [1] relates to SK-MEL-28 melanoma.
Test [2] relates to HCT-15 colon.
Test [3] has as its system T-47D breast.
Test [4] deals with NCI/ADR-RES ovarian.
In test [5] the test system is UO-31 renal.
For test [6], the system named is NCI-H522 lung.
Test [7] deals with LOX IMVI melanoma.
Test [8] concerns MCF7 breast.
The subject of test [9] is A498 renal.
The test system of test [10] is HL-60(TB) leukemia.

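All cell lines were grown in 96-well plates and treated with compound for 48 hours. GI50 is the concentration that inhibits growth by half. TGI marks complete inhibition of growth.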 Where a SMILES comes first, the peptide text is derived from it. [ ]: non-standard residue; d: D form. The star is where a group is joined. Palmitoyl = CCCCCCCCCCCCCCCC(=O)*; Cbz = O=C(OCc1ccccc1)*; Aib = CC(C)(N)C(=O)O; OBn = c1ccc(CO*)cc1

`CSc1nc2c(c(N(C)C)n1)C(O)n1c(nc3ccccc31)S2` (centres undefined): the TGI is more than 100 µM in [1]; more than 100 µM in test [2]; more than 85.3 µM in test [3]; more than 100 µM in test [4]; more than 100 µM in test [5]; 39.2 µM in test [6]. Also, the TGI in [7] was 75.5 µM; in test [8], more than 100 µM; in test [9] it was more than 100 µM.

Consider `c1ccc(C2=NOC(c3ccccc3)N2C23CC4CC(CC(C4)C2)C3)cc1` (centres undefined), for which the TGI in [10], in [1], in test [2], in test [3], in test [4] and in test [6] was more than 10 µM throughout. For the same compound, the TGI in test [7], in test [8] and in test [9] was more than 10 µM each time.

Turning to `COc1cc(O)c2c(=O)c(OC)c(-c3ccc(OC)c(O)c3)oc2c1`, the TGI in [10], in test [1], in [2], in test [3], in test [4] and in test [5] was more than 100 µM in each case. Moreover, the TGI in test [6] was more than 100 µM; in test [7], more than 100 µM; in [8] it was more than 100 µM; in [9], 15.3 µM.

Turning to `Cc1c2c(c(C)n1-c1ccccc1)C(=O)N(CCN1CCN(c3cccc(C(F)(F)F)c3)CC1)C2=O`, the TGI in test [2], in [3], in test [4], in test [5], in test [6] and in test [7] was more than 100 µM throughout. The TGI in test [8] and in test [9] was more than 100 µM throughout.

Turning to `COc1cc(C=O)ccc1O`, the TGI in [10], in test [1], in test [2], in test [3], in test [4] and in test [5] was more than 100 µM throughout. The TGI in [6], in test [7] and in test [8] was more than 100 µM each time.

For the compound `CCOC(=O)C(NC(=O)CC)(N1CCN(c2cc3c(cc2F)c(=O)c(C(=O)O)cn3C2CC2)CC1)C(F)(F)F` (centres undefined), the TGI in [10], in [1], in test [2], in test [3], in [4] and in test [5] was more than 100 µM throughout. For the same compound, the TGI in [6], in test [7], in test [8] and in test [9] was more than 100 µM each time.

Turning to `C[C@@H]1CCC2[C@@H](C)[C@@H](O[C@H]3O[C@@H]4O[C@@]5(C)CCC6[C@H](C)CCC([C@H]3C)[C@]64OO5)O[C@@H]3O[C@@]4(C)CCC1[C@@]23OO4` (some centres undefined), the TGI in test [10] was more than 5.22 µM; in [1], more than 25 µM; in [2], more than 25 µM; in test [3], more than 25 µM; in [4], more than 25 µM; in test [5], more than 25 µM. For the same compound, the TGI in test [6], in [7], in test [8] and in test [9] was more than 25 µM in each case.

On to `CC(NC(=O)C(C)(C)NC(=O)C(CC(=O)OCc1ccccc1)NC(=O)OCc1ccccc1)C(N)=O` (centres undefined) (Cbz-Asp(OBn)-[Aib]-Ala-NH2; configuration not given here), for which the TGI in [10], in [1], in test [2], in test [3], in test [4] and in [5] was more than 100 µM throughout. For the same compound, the TGI in test [6], in test [7] and in [8] was more than 100 µM in each case.

As for `CC(C)(C)c1ccc2c(c1)C#Cc1cc3c(cc1OCCCO2)C#Cc1cc(C(C)(C)C)ccc1OCCCO3`, the TGI was more than 100 µM in [10]; more than 100 µM in test [1]; 5.92 µM in [2]; more than 100 µM in test [3]; 29.5 µM in test [4]; more than 100 µM in test [6]. Moreover, the TGI in test [7], in [8] and in test [9] was more than 100 µM throughout.

Regarding `CCCCCCCCCCCCCCCC(=O)N1CCCC1C(=O)NCC(=O)NC(Cc1ccccc1)C(=O)N1CCCC1C(=O)NC(CO)C(=O)NC(Cc1ccc(O)cc1)C(=O)NC(CCCCN)C(=O)NC(CC(C)C)C(=O)NC(CCCN=C(N)N)C(=O)N1CCCC1C(=O)NCC(N)=O` (centres undefined) (Palmitoyl-PGFPSYKLRPG-NH2; configuration not given here), the GI50 was 18.7 µM in test [10]; 13.9 µM in test [1]; 17.9 µM in [3]; 18.2 µM in test [4]; 20.5 µM in test [5]; 25.1 µM in [6]. In addition, the GI50 in test [8] is 15 µM; in test [9], 32.8 µM. Besides, the TGI in test [10] was 52.9 µM; in test [1] it was 50.3 µM; in test [3] it was 48.5 µM; in [4], 39.2 µM; in test [5], 56.8 µM; in [6] it was 60.3 µM. Further, the TGI turned out to be 35.3 µM in [8] and 93.2 µM in test [9].

Consider `CNc1[nH]c(=S)nc2sc3c(c12)CCCC3`, for which the TGI in test [10], in test [1], in test [2], in [3], in test [4] and in test [5] was more than 75 µM in each case. Also, the TGI in test [6], in test [7], in test [8] and in test [9] was more than 75 µM in each case.

With `CC(C)(CO)CNc1nc(N)nc(Cl)c1/C=N/O`, the TGI was more than 100 µM in test [10]; more than 100 µM in test [1]; more than 100 µM in [2]; 38.9 µM in test [3]; more than 100 µM in [4]; more than 100 µM in test [5]. Also, the TGI in test [6], in test [7], in test [8] and in [9] was more than 100 µM each time.

The values are drawn from PubChem BioAssay (NCI).
